Assay results published in patent US20130177904A1, “ARNT ISOFORM 3 AS A PREDICTOR OF AMINOFLAVONE RESPONSIVENESS IN CANCER CELLS” (UNIVERSITY OF MARYLAND, BALTIMORE, priority 2010, published 2013).

Columns and labels:
[1] = tested on: U251; settings: U251 CNS cancer cell line, NIH dose response data; cited from earlier work
[2] = tested on: PS2 and Cyp1A1 promoters in T47D; assay: Chromatin Immunoprecipitation (ChIP), AhR and ER crosstalk; format: cell-based, Human; settings: 4 or 8 hours post-treatment with AF, FIG. 3
Description: (§1) Considering that the AhR and ER are both nuclear receptors and act as transcription factors, modulation of ER action after AhR activation by AF (“crosstalk”) was theorized to contribute to overall AF effects in ER+ cell lines. Therefore, Chromatin Immunoprecipitation (ChIP) was employed to study the potential crosstalk of AhR and ER after AF action at the PS2 promoter, a classical ER/estradiol inducible gene, and on Cyp1A1, a classical AF/AhR inducible gene known to be induced by AF. Transcription components studied were the AhR, ER, ARNT (the AhR transcriptional partner), RNA Polymerase II and CBP. CBP is a histone acetyl transferase associated with productive AhR induction of gene expression (Hestermann, E. V. and M. Brown, Mol Cell Biol, 23(21):7920-5 (2003)). In both T47D and MCF7 ER+ cell lines, all transcription components tested were present on the Estradiol inducible PS2 gene promotor, including the AhR. On the Cyp1A1 promotor, all the apparatus excluding CBP was present.
(§2) ChIP analysis was performed employing the Chromatin Immunoprecipitation (ChIP) Assay Kit (Millipore) as per company recommendations. […]
(§3) The resultant DNA was analyzed by PCR employing GoTaq Green Master Mix (Promega) using the following protocol: 94° C. for 2 minutes for initial melting, followed by 35 cycles at 94° C. for 30 seconds, 55° C. for 40 seconds, 72° C. […]

[3] = tested on: PS2 and Cyp1A1 promoters in MCF7; assay: as above; format: cell-based, Human; settings: MCF7, 4 or 8 hours post-treatment with AF, FIG. 3
Description: as §1, §2, §3

[4] = tested on: Hst578t; assay: Cell Death Detection ELISA PLUS apoptosis assay; format: cell-based, Human; settings: 1 μM AF, Hst578t listed as AF insensitive, 24 h or 48 h, FIG. 2A
Protocol: (§4) To determine the induction of apoptosis, the Cell Death Detection ELISA^PLUS Assay (Roche Cat. No. 11774425001), which determines the degree of cytoplasmic mono- and oligonucleosomes, was employed as described by the manufacturer. Briefly, breast cancer cells (5,000 cells for MCF-7; 2,000 cells for MDA-MB-231; 15,000 cells for T47D; 15,000 cells for MDA-MB-468; 5,000 cell for Hst578) were plated on 96 well plates and treated the next morning with or without or 1 uM AF for 24 h or 48 h. Cells were then concentrated by centrifugation at 200 g for 10 min at room temperature and the supernatant was discarded. Cells were lysed, and cytoplasmic fractions containing fragmented DNA were transferred to streptavidin-coated microtiter plates preincubated with a biotinylated monoclonal anti-histone antibody. The amount of fragmented nucleosomes bound to anti-histone antibody was evaluated by peroxidase-conjugated monoclonal antibody using ABTS (2,2-azino-di[3-ethylbenzthiazoline sulfonate-6-diammonium salt]) as a substrate, and read in a microplate reader at 405 nm. Non-treated cells were employed as controls.

[5] = tested on: MDA-MB-231; assay: Cell Death Detection ELISA PLUS apoptosis assay; format: cell-based, Human; settings: 1 μM AF, MDA-MB-231, 24 h or 48 h, FIG. 2A
Protocol: as §4

[6] = tested on: CAKi1; settings: CAKi1 renal cell line, NIH dose response data; cited from earlier work

SMILES: Cc1c(F)c(N)c2c(=O)cc(-c3ccc(N)c(F)c3)oc2c1F [AF, 5-amino-2-(4-amino-3-fluorophenyl)-6,8-difluoro-7-methylchromen-4-one]
- AF sensitivity [1]: some degree of sensitivity
- transcriptional adjustment at PS2 and Cyp1A1 promoters (ChIP) [2]: dissociation of ER-related transcriptional control elements from the PS2 estrogenic promoter and their association with the Cyp1A1 promotor
- transcriptional adjustment at PS2 and Cyp1A1 promoters (ChIP) [3]: dissociation of ER-related transcriptional control elements from the PS2 estrogenic promoter and their association with the Cyp1A1 promotor
- increase in cytoplasmic nucleosomes [4]: < 2 fold
- increase in cytoplasmic nucleosomes [5]: < 2 fold
- AF sensitivity [6]: AF sensitive
